Patent publication US7022737B2, “Manipulating nitrosative stress to kill pathologic microbes, pathologic helminths and pathologically proliferating cells or to upregulate nitrosative stress defenses” (Duke University, priority 1996, dated 2006)

Key:
[1] = biological target: T1, E. coli gamma-glutamylcysteine synthetase (Escherichia coli, UniProt P0A6W9); experiment: Inactivation of E. coli gamma-GCS by homocysteine sulfoximines (preincubation with ATP, residual activity by coupled PK/LDH assay); assay type: biochemical; settings: 100 μM inhibitor
T1 construct: made in house
Procedure: E. coli gamma-GCS was isolated from bacterial cells engineered to overexpress the enzyme; the isolation procedure was similar to that used previously to isolate mammalian gamma-GCS. […] The enzyme was assayed in reaction mixtures (final volume=1.0 ml) containing: 150 mM Tris·HCl, pH 8.2, 100 mM KCl, 25 mM MgCl2, 7.5 mM ATP, 7.5 mM phosphoenolpyruvate, 0.3 mM EDTA, 10 mM L-glutamate, 10 mM L-α-aminobutyrate (an L-cysteine analog), 0.3 mM NADH, 5 IU pyruvate kinase, and 5 IU lactate dehydrogenase. Reaction was initiated by adding gamma-GCS; in control studies, L-α-aminobutyrate was omitted from the reaction mixture. In this assay, pyruvate kinase (PK) and lactate dehydrogenase (LDH) are added in excess to detect formation of ADP, one of the products of the gamma-GCS reaction. The relevant enzyme reactions are shown as equations 1–3 below. Oxidation of NADH to NAD^+ is followed and quantitated spectrophotometrically at 340 nm (1 μmol oxidation gives ΔOD=−6.2) and is directly proportional to product formation by gamma-GCS. [drawing 2]
Inhibition by homocysteine sulfoximines was carried out by preincubating the E. coli gamma-GCS with potential inhibitors in the presence of ATP and then removing aliquots of that mixture at specific times and assaying for residual activity using the assay procedure described above. The preincubation reaction mixtures contained (final volume=400 μl) the following: 210 mM Tris·HCl, pH 8.2, 142 mM KCl, 36 mM MgCl2, 10 mM ATP, 0.4 mM EDTA, various amounts of sulfoximine, and gamma-GCS. At intervals, 50 μl aliquots were removed and added to 1.0 ml assay reaction mixtures to determine residual activity spectrophotometrically. Results of a study indicate that E. coli gamma-GCS loses about 27% of its activity over 30 minutes in the absence of added inhibitors; this loss of activity represents an inherent instability in the enzyme when incubated under these reaction conditions in this particular experiment. […]

Giardia lamblia = experiment: Patient with Giardia lamblia infection; assay type: in vivo; settings: 4 mmol/kg four times a day p.o. with metronidazole 500 mg twice a day p.o. for five days
small cell lung cancer = experiment: Patients with small cell lung cancer; assay type: in vivo; settings: cyclophosphamide, NO-substituted doxirubicin IV and BSO 4 mmol/kg IV four times/day; chest X-ray in two months
Procedure: A person with a 80 pack-year history of smoking presents with hemoptosis and weight loss. […] The patient is given a combination therapy of cyclophosphamide (750 mg/m^2) plus NO-substituted doxirubicin (40 mg/m^2) and vincristine (2 mg) (all administered i.v.). The therapeutic regimen is repeated once at three weeks.
A person with a 20 pack/year history of smoking presents with cough. […] The patient receives cyclophosphamide (750 mg/m^2 and NO-substituted doxirubicin (administered IV)). The patient also receives L-buthionine-S-sulfoximine, i.e., BSO (4 mmol/kg IV four times/day).

herpes labialis = experiment: Patient with recurrent herpes labialis; assay type: in vivo; settings: in Denavir (pencicyclovir cream), topically every two hours while awake
Source text: A homosexually active person developed a recurrent herpes labialis (cold sore) on their lips and face. Therapy with Denavir (pencicyclovir cream) that contains buthionine sulfoximine is applied topically every two hours while awake.

[2] = tested on: metastatic malignant melanoma; experiment: Patient with metastatic malignant melanoma; assay type: in vivo; settings: L-buthionine-S-sulfoximine 2 mmol/kg p.o. every 4 hours and hydroxyurea 10 mg/kg p.o., one week
Procedure: A person […] and a history of surgery five years previously to remove malignant melanotic nevi from their upper back and chest is found to have blood in their stool on routine physical examination. […] The patient is administered L-buthionine-S-sulfoximine (2 mmol/kg) p.o. every 4 hours for one week and is given 10 mg/kg of hydroxyurea p.o. 1 hour after every third dose of L-buthionine-S-sulfoximine. […] The patient shown no further evidence of metastases during a six month follow-up.

[3] = biological target: T2, gamma-glutamylcysteinyl synthetase (gamma-GCS) (Rattus norvegicus, UniProt P19468); settings: mammalian systems, literature; cited from earlier work
T2 sequence (P19468 1-637): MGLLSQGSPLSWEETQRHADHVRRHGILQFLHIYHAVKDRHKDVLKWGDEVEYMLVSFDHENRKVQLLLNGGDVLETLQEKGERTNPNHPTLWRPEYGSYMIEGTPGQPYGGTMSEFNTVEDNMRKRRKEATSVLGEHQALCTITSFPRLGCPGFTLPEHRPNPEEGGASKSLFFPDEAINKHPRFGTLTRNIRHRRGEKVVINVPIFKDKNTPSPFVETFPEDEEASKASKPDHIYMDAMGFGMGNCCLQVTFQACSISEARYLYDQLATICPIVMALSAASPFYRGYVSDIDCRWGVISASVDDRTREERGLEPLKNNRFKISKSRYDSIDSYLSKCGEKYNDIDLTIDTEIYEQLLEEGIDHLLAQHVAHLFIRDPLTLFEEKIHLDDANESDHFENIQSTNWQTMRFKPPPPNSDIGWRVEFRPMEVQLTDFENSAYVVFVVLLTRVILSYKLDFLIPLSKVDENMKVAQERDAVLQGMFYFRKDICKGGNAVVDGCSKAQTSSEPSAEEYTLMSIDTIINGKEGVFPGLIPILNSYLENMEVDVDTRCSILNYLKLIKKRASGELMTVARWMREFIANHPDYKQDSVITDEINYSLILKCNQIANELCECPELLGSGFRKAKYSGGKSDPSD
T2 sequence (P48508 1-274 partner): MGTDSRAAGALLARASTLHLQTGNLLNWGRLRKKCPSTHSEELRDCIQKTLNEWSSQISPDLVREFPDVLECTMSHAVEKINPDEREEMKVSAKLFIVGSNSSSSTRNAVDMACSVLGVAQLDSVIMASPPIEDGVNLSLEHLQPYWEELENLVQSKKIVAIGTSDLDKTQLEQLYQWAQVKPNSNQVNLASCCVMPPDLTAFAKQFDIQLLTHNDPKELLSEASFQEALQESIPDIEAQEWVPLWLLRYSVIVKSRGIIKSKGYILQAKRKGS

T1 sequence (P0A6W9 whole entry): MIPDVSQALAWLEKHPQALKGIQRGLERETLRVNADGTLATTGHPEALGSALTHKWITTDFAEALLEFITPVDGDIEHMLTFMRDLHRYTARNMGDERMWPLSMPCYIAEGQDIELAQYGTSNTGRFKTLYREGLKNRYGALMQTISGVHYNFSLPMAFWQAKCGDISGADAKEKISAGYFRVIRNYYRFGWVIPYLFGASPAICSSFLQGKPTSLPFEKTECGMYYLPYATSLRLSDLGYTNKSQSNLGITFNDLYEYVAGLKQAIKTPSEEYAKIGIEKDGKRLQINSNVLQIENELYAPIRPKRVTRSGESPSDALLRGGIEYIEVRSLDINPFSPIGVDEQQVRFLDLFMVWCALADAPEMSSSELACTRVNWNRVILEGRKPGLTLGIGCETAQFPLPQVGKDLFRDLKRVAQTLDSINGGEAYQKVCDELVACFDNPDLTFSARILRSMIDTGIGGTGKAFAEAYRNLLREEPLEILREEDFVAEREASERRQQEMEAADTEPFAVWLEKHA

CCCCS(=N)(=O)CC[C@H](N)C(=O)O (stereo partly drawn) [L-buthionine-S-sulfoximine]
inactivation of E. coli gamma-GCS ([1]; 10 min preincubation): 89%
inactivation of E. coli gamma-GCS ([1]; 30 min preincubation): virtually complete inactivation
clinical outcome (Giardia lamblia): stool culture becomes negative for Giardia after five days
clinical outcome (small cell lung cancer): decrease in size of the mass
mean duration of the lesion versus Denavir without BSO (herpes labialis): half the time shorter
reduction in size of metastatic tumor [2]: 30%
inhibition of gamma-GCS [3]: most effectively inhibited
